{"source": "patent US20040009126A1", "about": "“Inhalation system for prevention and treatment of intracellular infections” (priority 2002, published 2004)", "conditions": "mice, intratracheal administration, lungs", "source_text": "FIG. 2 is a graphical representation of the biodistribution of ciprofloxacin in the lungs upon administration of ciprofloxacin in liposomal form by inhalation and in free form by inhalation and orally.\nThe distribution following IT administration was compared with the distribution obtained in the lungs following an oral delivery of ciprofloxicin."}
{"smiles": "O=C(O)c1cn(C2CC2)c2cc(N3CCNCC3)c(F)cc2c1=O", "note": "[free ciprofloxicin, ciprofloxicin]", "values": [{"measurement": "lung level of ciprofloxicin over time", "result": "negligible after one hour"}]}
